From ChEMBL document CHEMBL5523769, “Discovery of Novel Nonpeptidic and Noncovalent Small Molecule 3CLpro Inhibitors as anti-SARS-CoV-2 Drug Candidate” (J Med Chem, 2024)

Experiments:
[1] = Cytotoxicity against African green monkey Vero E6 cells incubated for 24 hrs by CCK8 assay; assay type: toxicity, cell-based, Vero C1008; conditions: chlorocebus sabaeus
[2] = biological target: T1, Replicase polyprotein 1ab (Severe acute respiratory syndrome coronavirus 2, UniProt P0DTD1)
[3] = biological target: Replicase polyprotein 1ab (Severe acute respiratory syndrome coronavirus 2) (UniProt P0DTD1); conditions: dose 31.25-1000 nM, time 100.0 sec
[4] = biological target: T1, Replicase polyprotein 1ab; remark: listed apart in the source
[5] = biological target: T1, Replicase polyprotein 1ab; remark: listed apart in the source
[6] = biological target: Replicase polyprotein 1ab (Severe acute respiratory syndrome coronavirus 2) (UniProt P0DTD1); conditions: dose 31.25-1000 nM, time 100.0 sec; remark: listed apart in the source
[7] = Tmax in ICR mouse at 20 mg/kg, po; assay type: ADME, organism-based; conditions: in vivo
[8] = Half-life in ICR mouse at 20 mg/kg, po; assay type: ADME, organism-based; conditions: in vivo
[9] = Cmax in ICR mouse at 20 mg/kg, po; assay type: ADME, organism-based; conditions: in vivo
[10] = AUC (0 to infinity) in ICR mouse at 20 mg/kg, po; assay type: ADME, organism-based; conditions: in vivo
[11] = AUClast in ICR mouse at 20 mg/kg, po; assay type: ADME, organism-based; conditions: in vivo
[12] = Observed MRT (0 to infinity) in ICR mouse at 20 mg/kg, po; assay type: ADME, organism-based; conditions: in vivo
[13] = biological target: T2, Calpain-1 catalytic subunit (Homo sapiens, UniProt P07384); assay: Inhibition of human Calpain 1 using N-Suc-Leu-Leu-Val-Tyr-7-AMC as substrate incubated for 10 mins by FRET-enzymatic assay
T2 sequence (P07384 whole entry): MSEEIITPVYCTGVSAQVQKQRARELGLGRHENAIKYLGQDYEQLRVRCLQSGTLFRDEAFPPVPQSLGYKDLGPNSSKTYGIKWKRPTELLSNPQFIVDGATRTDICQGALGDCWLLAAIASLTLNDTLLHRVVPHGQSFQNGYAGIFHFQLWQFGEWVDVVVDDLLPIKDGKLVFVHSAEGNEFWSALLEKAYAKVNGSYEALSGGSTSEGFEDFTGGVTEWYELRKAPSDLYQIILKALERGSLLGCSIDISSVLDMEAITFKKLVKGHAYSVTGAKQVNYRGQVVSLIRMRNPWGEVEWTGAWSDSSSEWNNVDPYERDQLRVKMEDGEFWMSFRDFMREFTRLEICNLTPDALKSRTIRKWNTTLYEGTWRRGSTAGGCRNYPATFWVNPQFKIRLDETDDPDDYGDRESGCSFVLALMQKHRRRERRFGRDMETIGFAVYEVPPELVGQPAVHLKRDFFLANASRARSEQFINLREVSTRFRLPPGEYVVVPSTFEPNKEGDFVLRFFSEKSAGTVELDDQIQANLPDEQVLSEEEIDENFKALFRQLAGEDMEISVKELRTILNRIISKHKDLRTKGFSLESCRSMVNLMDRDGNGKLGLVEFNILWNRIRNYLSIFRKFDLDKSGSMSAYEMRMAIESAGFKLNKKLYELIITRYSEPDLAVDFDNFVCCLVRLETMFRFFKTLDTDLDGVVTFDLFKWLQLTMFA

Cathepsin B = Cathepsin B (Homo sapiens, UniProt P07858); assay: Inhibition of human Cathepsin B using CBZ-Arg-Arg-AMC as substrate incubated for 10 mins by FRET-enzymatic assay
Cathepsin D = Cathepsin D (Homo sapiens, UniProt P07339); assay: Inhibition of human Cathepsin D using MCA-PLGL-Dap(Dnp)-AR-NH2 as substrate incubated for 10 mins by FRET-enzymatic assay
Chain of Cathepsin D (P07339 65-162 limits assumed): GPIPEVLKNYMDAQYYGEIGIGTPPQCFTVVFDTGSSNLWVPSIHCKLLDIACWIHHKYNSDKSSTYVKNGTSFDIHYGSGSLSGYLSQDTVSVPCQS
Chain of Cathepsin D (P07339 169-412 limits assumed): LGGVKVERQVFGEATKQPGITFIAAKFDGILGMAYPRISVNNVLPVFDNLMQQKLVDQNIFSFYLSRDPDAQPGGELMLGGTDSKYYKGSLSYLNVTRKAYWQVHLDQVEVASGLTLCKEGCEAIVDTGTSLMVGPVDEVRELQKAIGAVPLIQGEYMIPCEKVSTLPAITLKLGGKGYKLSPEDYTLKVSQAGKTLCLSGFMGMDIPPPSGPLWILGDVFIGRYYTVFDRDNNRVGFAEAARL

Cathepsin K = biological target: T3, Cathepsin K (Homo sapiens, UniProt P43235); assay: Inhibition of human Cathepsin K using Z-Phe-Arg-AMC as substrate incubated for 10 mins by FRET-enzymatic assay
T3 sequence (P43235 whole entry): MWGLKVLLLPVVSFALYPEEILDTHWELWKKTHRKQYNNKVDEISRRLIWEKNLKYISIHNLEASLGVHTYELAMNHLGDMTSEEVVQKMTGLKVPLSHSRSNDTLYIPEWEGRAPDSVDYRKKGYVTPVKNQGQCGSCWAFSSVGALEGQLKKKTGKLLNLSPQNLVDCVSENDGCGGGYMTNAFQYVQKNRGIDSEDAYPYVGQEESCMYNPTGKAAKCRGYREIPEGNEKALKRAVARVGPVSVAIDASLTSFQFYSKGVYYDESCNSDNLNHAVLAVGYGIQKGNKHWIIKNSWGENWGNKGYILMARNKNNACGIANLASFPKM

Procathepsin L = Procathepsin L (Homo sapiens, UniProt P07711); assay: Inhibition of human Cathepsin L using Z-Phe-Arg-AMC as substrate incubated for 10 mins by FRET-enzymatic assay
Chain of Procathepsin L (P07711 whole entry): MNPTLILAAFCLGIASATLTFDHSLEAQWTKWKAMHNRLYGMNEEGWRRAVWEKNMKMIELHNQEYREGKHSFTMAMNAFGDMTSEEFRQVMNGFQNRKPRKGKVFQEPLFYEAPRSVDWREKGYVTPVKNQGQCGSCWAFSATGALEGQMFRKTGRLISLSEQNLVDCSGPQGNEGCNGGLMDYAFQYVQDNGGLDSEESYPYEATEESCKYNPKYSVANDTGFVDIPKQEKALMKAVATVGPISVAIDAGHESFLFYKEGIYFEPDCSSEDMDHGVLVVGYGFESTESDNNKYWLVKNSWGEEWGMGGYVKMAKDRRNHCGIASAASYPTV

Trypsin = Trypsin (Homo sapiens, UniProt P07477+P07478+P35030); assay: Inhibition of human trypsin using CBZ-Arg-Arg-AMC as substrate incubated for 10 mins by FRET-enzymatic assay; assay type: protein assay
Prothrombin = Prothrombin (Homo sapiens, UniProt P00734); assay: Inhibition of human thrombin using benzoyl-FVR-AMC as substrate incubated for 10 mins by FRET-enzymatic assay
Proteasome = assay type: subcellular, Homo sapiens
Dipeptidyl peptidase 4 = Dipeptidyl peptidase 4 (Homo sapiens, UniProt P27487); assay: Inhibition of human DPP-4 using Gly-Pro-AMC as substrate incubated for 10 mins by FRET-enzymatic assay
Chain of Dipeptidyl peptidase 4 (P27487 whole entry): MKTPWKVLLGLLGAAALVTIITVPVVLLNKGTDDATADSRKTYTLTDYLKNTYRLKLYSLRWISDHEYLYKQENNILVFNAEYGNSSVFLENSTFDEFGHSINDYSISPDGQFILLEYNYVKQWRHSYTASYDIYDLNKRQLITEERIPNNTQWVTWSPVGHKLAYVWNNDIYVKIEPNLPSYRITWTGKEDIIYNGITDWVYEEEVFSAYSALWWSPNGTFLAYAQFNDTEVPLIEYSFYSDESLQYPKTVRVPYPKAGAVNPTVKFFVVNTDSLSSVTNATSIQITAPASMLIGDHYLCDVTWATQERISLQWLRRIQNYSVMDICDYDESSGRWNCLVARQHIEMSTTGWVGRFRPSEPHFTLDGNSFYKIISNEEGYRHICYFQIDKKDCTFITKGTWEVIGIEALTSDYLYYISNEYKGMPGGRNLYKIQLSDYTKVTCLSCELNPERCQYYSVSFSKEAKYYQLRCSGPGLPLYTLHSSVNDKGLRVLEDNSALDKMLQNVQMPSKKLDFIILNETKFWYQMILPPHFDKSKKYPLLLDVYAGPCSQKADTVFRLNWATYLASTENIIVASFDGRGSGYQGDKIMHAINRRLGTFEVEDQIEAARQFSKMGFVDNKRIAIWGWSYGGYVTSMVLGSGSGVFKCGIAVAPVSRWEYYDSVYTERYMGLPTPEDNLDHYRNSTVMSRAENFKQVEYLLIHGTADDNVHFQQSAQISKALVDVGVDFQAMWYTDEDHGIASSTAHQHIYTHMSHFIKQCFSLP

Caspase-3 = biological target: T4, Caspase-3 (Homo sapiens, UniProt P42574); assay: Inhibition of human Caspase-3 activity using Ac-DEVD-pNA as substrate incubated for 5 mins by FRET-enzymatic assay
T4 sequence (P42574 whole entry): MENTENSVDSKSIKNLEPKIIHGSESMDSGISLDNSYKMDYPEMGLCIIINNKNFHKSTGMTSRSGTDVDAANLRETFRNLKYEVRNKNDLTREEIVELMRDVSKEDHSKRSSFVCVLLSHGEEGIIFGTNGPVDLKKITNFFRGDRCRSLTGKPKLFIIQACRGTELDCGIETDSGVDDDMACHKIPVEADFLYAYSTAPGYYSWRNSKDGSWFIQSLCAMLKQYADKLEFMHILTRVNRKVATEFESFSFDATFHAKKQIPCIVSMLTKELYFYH

[14] = Inhibition of Bat coronavirus WIV-1 3CLpro by FRET-enzymatic assay
[15] = Inhibition of MERS-CoV 3CLpro by FRET-enzymatic assay; set-up: species or system Middle East respiratory syndrome-related coronavirus
[16] = Inhibition of HCov-OC43 3CLpro by FRET-enzymatic assay; set-up: species or system Human coronavirus OC43
[17] = biological target: Replicase polyprotein 1ab (Human coronavirus 229E, UniProt P0C6X1); assay: Inhibition of HCov-229E 3CLpro by FRET-enzymatic assay
Chain of Replicase polyprotein 1ab (Human coronavirus 229E, UniProt P0C6X1) (P0C6X1 2966-3267 limits assumed): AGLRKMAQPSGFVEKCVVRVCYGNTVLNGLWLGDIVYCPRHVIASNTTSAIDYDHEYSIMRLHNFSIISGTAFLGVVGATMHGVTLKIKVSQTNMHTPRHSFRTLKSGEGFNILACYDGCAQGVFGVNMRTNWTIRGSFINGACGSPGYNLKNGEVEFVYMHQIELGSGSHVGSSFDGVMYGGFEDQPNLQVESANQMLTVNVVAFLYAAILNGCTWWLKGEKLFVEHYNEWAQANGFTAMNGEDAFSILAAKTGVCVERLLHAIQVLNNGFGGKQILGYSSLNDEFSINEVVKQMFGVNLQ

[18] = Inhibition of Bat coronavirus HKU9 3CLpro by FRET-enzymatic assay; set-up: species or system Rousettus bat coronavirus HKU9
[19] = Inhibition of porcine delta coronavirus 3CLpro by FRET-enzymatic assay; set-up: species or system Porcine deltacoronavirus
3C-like protease = 3C-like protease (Infectious bronchitis virus, UniProt Q3Y5H1); assay: Inhibition of Infectious bronchitis virus 3CLpro by FRET-enzymatic assay
Chain of 3C-like protease (Q3Y5H1 whole entry): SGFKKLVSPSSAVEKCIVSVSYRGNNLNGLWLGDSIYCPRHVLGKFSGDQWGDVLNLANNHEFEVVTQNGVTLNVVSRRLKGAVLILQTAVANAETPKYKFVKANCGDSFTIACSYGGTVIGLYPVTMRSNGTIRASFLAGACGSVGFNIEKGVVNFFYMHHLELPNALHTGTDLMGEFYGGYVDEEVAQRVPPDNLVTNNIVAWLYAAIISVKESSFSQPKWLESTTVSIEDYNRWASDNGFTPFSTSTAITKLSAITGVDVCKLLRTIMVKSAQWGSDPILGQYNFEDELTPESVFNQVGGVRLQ

[20] = Inhibition of mouse hepatitis virus 3CLpro by FRET-enzymatic assay; set-up: species or system Murine hepatitis virus
[21] = Acute toxicity in mouse at 500 mg/kg, po administered twice a day for 5 days; assay type: organism-based; conditions: in vivo, 120 h, time 5 day
[22] = Acute toxicity in mouse assessed as animal death at 500 mg/kg, po administered twice a day for 5 days; assay type: organism-based; conditions: in vivo, 120 h, time 5 day
[23] = Acute toxicity in mouse assessed as body weight change at 500 mg/kg, po administered twice a day for 5 days; assay type: organism-based; conditions: in vivo, 120 h, time 5 day

Question: Which CC50 at 24 h [1] does the source give for O=C(N[C@H]1CCCC[C@H]1Nc1c(C(=O)N2CCOCC2)cc(C2CC2)cc1[N+](=O)[O-])c1cc(=O)[nH]c2ccccc12 here?
Answer: The CC50 at 24 h was greater than 200000 nM.

Question: And the IC50 [2]?
Answer: The IC50 was 9.6 nM.

Question: With O=C(NCCC(F)(F)F)C1CN(c2ccc(Cl)c(Cl)c2)CCN1C(=O)c1cc(=O)[nH]c2ccccc12 (stereo not drawn) as the compound, how does the CC50 at 24 h [1] read?
Answer: Its CC50 at 24 h is 50300 nM.

Question: What about the IC50 [2] of the same compound?
Answer: Its IC50 is 200 nM.

Question: Which CC50 at 24 h [1] does the source give for O=C(NCCCC(F)(F)F)C1CN(c2ccc(Cl)c(Cl)c2)CCN1C(=O)c1cc(=O)[nH]c2ccccc12 (stereo not drawn) here?
Answer: The CC50 at 24 h was 69400 nM.

Question: What about the IC50 [2] of the same compound?
Answer: Its IC50 is 200 nM.

Question: Which results are given for O=C(c1cc(=O)[nH]c2ccccc12)N1CCN(c2ccc(Cl)c(Cl)c2)CC1CN1CCOCC1 (stereo not drawn)?
Answer: CC50 at 24 h [1]: 381000 nM; K [3]: 0.028 s⁻¹; IC50 [4]: 150 nM; IC50 [2]: 150 nM; Kd [5]: 117 nM

Question: For COc1ccc2[nH]c(=O)cc(C(=O)N[C@H]3CCCC[C@H]3Nc3c(C(=O)N4CCOCC4)cc(C4CC4)cc3[N+](=O)[O-])c2c1, which CC50 at 24 h [1] is on record?
Answer: The CC50 at 24 h was greater than 200000 nM.

Question: And the IC50 [2]?
Answer: The IC50 was 10.6 nM.

Question: For CNC(=O)c1cc(Br)cc([N+](=O)[O-])c1N[C@@H]1CCCC[C@@H]1NC(=O)c1cc(=O)[nH]c2c(F)cccc12, which CC50 at 24 h [1] is on record?
Answer: The CC50 at 24 h was greater than 200000 nM.

Question: What about the K [6] of the same compound?
Answer: The K was 7.5 10^5/M/s.

Question: And the K [3]?
Answer: The K was 0.018 s⁻¹.

Question: And the Tmax [7]?
Answer: Its Tmax is 3 min.

Question: And the half-life [8]?
Answer: Its half-life is 2.31 h.

Question: And the Cmax [9]?
Answer: Its Cmax is 63.6 ng/mL.

Question: What about the AUC(0-inf) [10] of the same compound?
Answer: Its AUC(0-inf) is 58.2 ng·h/mL.

Question: And the AUC(0-t) [11]?
Answer: The AUC(0-t) was 56.1 ng·h/mL.

Question: And the MRT inf [12]?
Answer: Its MRT inf is 1.56 h.

Question: What about the IC50 [2] of the same compound?
Answer: The IC50 was 57 nM.

Question: What about the Kd [5] of the same compound?
Answer: The Kd was 23.6 nM.

Question: Which results are given for CNC(=O)c1cc(Br)cc([N+](=O)[O-])c1N[C@@H]1CCCC[C@@H]1NC(=O)c1cc(=O)[nH]c2ccc(F)cc12?
Answer: CC50 at 24 h [1]: > 200000 nM; IC50 [2]: 58.2 nM

Question: With CNC(=O)c1cccc([N+](=O)[O-])c1N[C@@H]1CCCC[C@@H]1NC(=O)c1cc(=O)[nH]c2ccccc12 as the compound, how does the IC50 [2] read?
Answer: The IC50 was 1240 nM.

Question: With O=C(NCC1CCO1)C1CN(c2ccc(Cl)c(Cl)c2)CCN1C(=O)c1cc(=O)[nH]c2ccccc12 (stereo not drawn) as the compound, how does the IC50 [2] read?
Answer: Its IC50 is 310 nM.

Question: With O=C(N[C@H]1CCC[C@H]1Nc1c(C(=O)N2CCOCC2)cc(Br)cc1[N+](=O)[O-])c1cc(=O)[nH]c2ccccc12 as the compound, how does the IC50 [2] read?
Answer: Its IC50 is 20.9 nM.

Question: With CC1(C)C2CN(C(=O)C3CN(c4ccc(Cl)c(Cl)c4)CCN3C(=O)c3cc(=O)[nH]c4ccccc34)CC21 (stereo not drawn) as the compound, how does the IC50 [2] read?
Answer: Its IC50 is 4510 nM.

Question: With O=C(NCCC1CCCC1)C1CN(c2ccc(Cl)c(Cl)c2)CCN1C(=O)c1cc(=O)[nH]c2ccccc12 (stereo not drawn) as the compound, how does the IC50 [2] read?
Answer: Its IC50 is 920 nM.

Question: Which results are given for CN1CCN(C(=O)c2cc(Br)cc([N+](=O)[O-])c2N[C@@H]2CCCC[C@@H]2NC(=O)c2cc(=O)[nH]c3c(F)cccc23)CC1?
Answer: CC50 at 24 h [1]: > 200000 nM; K [6]: 3.8 10^5/M/s; K [3]: 0.007 s⁻¹; IC50 [13]: > 100000 nM; IC50 (Cathepsin B): > 100000 nM; IC50 (Cathepsin D): > 100000 nM; IC50 (Cathepsin K): > 100000 nM; IC50 (Procathepsin L): > 100000 nM; IC50 (Trypsin): > 100000 nM; IC50 (Prothrombin): > 100000 nM; IC50 (Proteasome): > 100000 nM; IC50 (Dipeptidyl peptidase 4): > 100000 nM; IC50 (Caspase-3): > 100000 nM; IC50 [14]: 86 nM; IC50 [15]: 1680 nM; IC50 [16]: 940 nM; IC50 [17]: 2560 nM; IC50 [18]: 402 nM; IC50 [19]: > 10000 nM; IC50 (3C-like protease): > 10000 nM; IC50 [20]: > 10000 nM; Tmax [7]: 3 min; half-life [8]: 1.21 h; Cmax [9]: 76.3 ng/mL; AUC(0-inf) [10]: 77.7 ng·h/mL; AUC(0-t) [11]: 70.6 ng·h/mL; MRT inf [12]: 1.44 h; Activity [21]: Non-Toxic; Activity [22]: Non-Toxic; Activity [23]: Non-Toxic; IC50 [2]: 21.1 nM; Kd [5]: 18.4 nM
